Broadly, the TGI is the concentration at which net growth stops. A lower TGI goes with greater sensitivity of the cells. As a reminder, the GI50 is the concentration that inhibits growth by half.

12 compounds from PubChem BioAssay (NCI) can be followed below.

Test systems include UACC-62 melanoma; U251 CNS; OVCAR-5 ovarian; K-562 leukemia; NCI-H460 lung; HOP-62 NSCLC; NCI-H226 lung; SNB-75 CNS; MALME-3M melanoma; NCI-H23 lung.
Assay in all cases: DTP human tumour cell line panel, 48 h

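The compound was tested at five concentrations on cells cultured in 96-well plates, with a 48-hour exposure period. GI50: concentration for 50% inhibition of growth. At the TGI there is no net growth.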 Where only a bound is given, the exact number is not on record here.

In the case of `CC(=O)Oc1c(C)n(CCCl)ccc1=O`, the TGI with UACC-62 melanoma, with U251 CNS, in the experiment on OVCAR-5 ovarian, with K-562 leukemia, in the experiment with NCI-H460 lung and in the experiment on HOP-62 NSCLC was more than 100 µM in each case. Besides, the TGI in the experiment on NCI-H226 lung, with SNB-75 CNS and in the experiment on MALME-3M melanoma was more than 100 µM in each case.
As for `CC1=C(C(=O)Nc2ccc([N+](=O)[O-])cc2)C(c2ccco2)C(C(=O)Nc2ccc([N+](=O)[O-])cc2)=C(C)N1`, the TGI with U251 CNS is more than 100 µM; in the experiment on OVCAR-5 ovarian, more than 100 µM; in the experiment with K-562 leukemia, more than 100 µM; in the experiment with NCI-H460 lung, more than 100 µM; in the experiment on HOP-62 NSCLC, 71.1 µM; in the experiment with NCI-H226 lung, more than 100 µM. Moreover, the TGI in the experiment on SNB-75 CNS was more than 100 µM; in the experiment with NCI-H23 lung, 65.9 µM; in the experiment on MALME-3M melanoma, 55.1 µM.
Regarding `CCCCN(CCCC)C(=O)C(=O)CC(=O)c1ccc(Br)cc1`, the TGI with UACC-62 melanoma, with U251 CNS, in the experiment with OVCAR-5 ovarian, in the experiment on K-562 leukemia, in the experiment on NCI-H460 lung and in the experiment with HOP-62 NSCLC was more than 100 µM throughout. Besides, the TGI in the experiment on NCI-H226 lung, in the experiment on NCI-H23 lung and in the experiment with MALME-3M melanoma was more than 100 µM in each case.
`O=C(O)CN(c1ccc(Cl)cc1)S(=O)(=O)c1ccccc1`: the TGI with UACC-62 melanoma, in the experiment with U251 CNS, in the experiment on OVCAR-5 ovarian, with K-562 leukemia, in the experiment with NCI-H460 lung and with NCI-H226 lung was more than 100 µM throughout. Also, the total growth inhibition concentration (TGI) with SNB-75 CNS, with NCI-H23 lung and in the experiment with MALME-3M melanoma was more than 100 µM each time.
For the compound `Cn1nc(-c2ccccc2NC(=O)C(F)(F)F)c(=O)n(C)c1=S`, the TGI in the experiment with U251 CNS was more than 100 µM; in the experiment with OVCAR-5 ovarian it was more than 100 µM; in the experiment with K-562 leukemia, 66.8 µM; in the experiment with NCI-H460 lung, 64.1 µM; in the experiment with HOP-62 NSCLC, more than 100 µM; in the experiment with NCI-H226 lung, more than 100 µM. The TGI with SNB-75 CNS was 59.4 µM; in the experiment with NCI-H23 lung, 80.8 µM; with MALME-3M melanoma, more than 100 µM.
As for `CC1=C(C(=O)Nc2ccccc2)C(c2ccc3c(c2)OCO3)C(C(=O)Nc2ccccc2)=C(C)N1`, the TGI with UACC-62 melanoma was more than 100 µM; in the experiment with K-562 leukemia, 66 µM; in the experiment with NCI-H460 lung, more than 100 µM; in the experiment with HOP-62 NSCLC it was more than 100 µM; in the experiment with NCI-H226 lung it was more than 100 µM; in the experiment with NCI-H23 lung, more than 100 µM. Besides, in the experiment on MALME-3M melanoma, the TGI is more than 100 µM.
Regarding `C=C(c1ccccc1N)[C@@]1(O)C[C@H](/C(=C\C)CO)C[C@@H]1NCc1ccccc1`, the TGI in the experiment on UACC-62 melanoma was more than 100 µM; in the experiment with U251 CNS it was 33.3 µM; in the experiment with K-562 leukemia, 39.5 µM; in the experiment on NCI-H460 lung it was 42.8 µM; in the experiment on HOP-62 NSCLC, more than 100 µM; in the experiment on NCI-H226 lung, 33.4 µM. The values for the TGI with SNB-75 CNS, with NCI-H23 lung and in the experiment on MALME-3M melanoma were 24.6 µM, more than 100 µM and 28.4 µM, respectively.
Consider `COc1cc2cc(Oc3ccc(NC(=O)Nc4cccc(C(F)(F)F)c4)cc3)c(C)nc2cc1OCCN1CCCCC1`, for which the GI50 in the experiment on UACC-62 melanoma was 1.75 µM; with OVCAR-5 ovarian, 1.87 µM; in the experiment on K-562 leukemia it was 0.802 µM; in the experiment on NCI-H460 lung, 1.83 µM; with NCI-H226 lung it was 1.92 µM; in the experiment with SNB-75 CNS, 1.15 µM. Besides, the values for the GI50 in the experiment with NCI-H23 lung and in the experiment on MALME-3M melanoma were 1.7 µM and 1.63 µM, respectively. In addition, the TGI with UACC-62 melanoma was found to be 3.15 µM; in the experiment on OVCAR-5 ovarian, 3.29 µM; with K-562 leukemia, 3.11 µM; in the experiment with NCI-H460 lung it was 3.37 µM; in the experiment on NCI-H226 lung, 4.62 µM; with SNB-75 CNS, 2.37 µM. Moreover, the TGI in the experiment with NCI-H23 lung came out at 3.26 µM; in the experiment with MALME-3M melanoma, 3.07 µM.
Turning to `Cc1ccc(S(=O)(=O)N/N=C/C(Br)=C(/Br)C(=O)O)cc1`, the TGI with UACC-62 melanoma was 22.3 µM; in the experiment on U251 CNS, 18.8 µM; with OVCAR-5 ovarian, more than 55.5 µM; with NCI-H460 lung, 44.4 µM; with HOP-62 NSCLC, 43.6 µM; in the experiment with NCI-H226 lung, 27.9 µM. Besides, the TGI with SNB-75 CNS amounted to 41 µM; in the experiment with NCI-H23 lung, 15.2 µM; in the experiment on MALME-3M melanoma it was 14.3 µM.
Consider `Cc1ccc(-c2c(C#N)c(N)nc(N3CCOCC3)c2C#N)o1`, for which the GI50 with UACC-62 melanoma was 39 µM; with OVCAR-5 ovarian, 27.4 µM; with K-562 leukemia it was 73.8 µM; in the experiment on NCI-H460 lung, 43.3 µM; in the experiment with HOP-62 NSCLC, 26.4 µM; with NCI-H226 lung it was 46.8 µM. Also, the GI50 with SNB-75 CNS is 2.73 µM; in the experiment with MALME-3M melanoma, 43.4 µM. For the same compound, the TGI with UACC-62 melanoma, in the experiment with OVCAR-5 ovarian, in the experiment with K-562 leukemia, in the experiment on NCI-H460 lung, in the experiment with HOP-62 NSCLC and in the experiment with NCI-H226 lung was more than 100 µM each time. In addition, the TGI in the experiment with SNB-75 CNS was 43.9 µM; in the experiment on MALME-3M melanoma, more than 100 µM.
For the compound `CC(=O)[CH-]C(=O)c1ccccc1.CC(=O)[CH-]C(=O)c1ccccc1.CCN(CC)CC[O-].CCN(CC)CC[O-].Cl.[Ti+4]`, the GI50 is 36 µM in the experiment with UACC-62 melanoma; 25.2 µM with U251 CNS; 59.6 µM in the experiment with OVCAR-5 ovarian; 37.8 µM with K-562 leukemia; 29.8 µM in the experiment with NCI-H460 lung; 37.4 µM in the experiment with HOP-62 NSCLC. Besides, the results for the GI50 in the experiment with NCI-H226 lung, in the experiment with SNB-75 CNS and in the experiment with MALME-3M melanoma were 23 µM, 21.9 µM and 22.8 µM, respectively. Moreover, the TGI was 91.6 µM in the experiment with UACC-62 melanoma; more than 100 µM in the experiment with U251 CNS; more than 100 µM with OVCAR-5 ovarian; more than 100 µM with K-562 leukemia; more than 100 µM in the experiment on NCI-H460 lung; more than 100 µM with HOP-62 NSCLC. The figures for the TGI with NCI-H226 lung, in the experiment with SNB-75 CNS and in the experiment with MALME-3M melanoma were 62.4 µM, 47.3 µM and 60.8 µM, respectively.
For the compound `COc1cc(C(=O)O)c([N+](=O)[O-])c(OC)c1OC`, the TGI in the experiment with UACC-62 melanoma, with U251 CNS, in the experiment with OVCAR-5 ovarian, in the experiment on NCI-H460 lung, with HOP-62 NSCLC and with NCI-H226 lung was more than 100 µM throughout. Besides, the concentration for total growth inhibition (TGI) in the experiment on SNB-75 CNS, with NCI-H23 lung and in the experiment with MALME-3M melanoma was more than 100 µM in each case.
